According to patent US20090192125A1, “Local anti-infective agent for treatment of nail fungal infections” (DermWorx Incorporated, priority 2007, published 2009):
Where two headings read alike, the source gives them in different places.

Key:
[1] = Penetration of hydroxypyridine-2-thione zinc (PT) into minced human fingernail clips (incubation, 30% DMSO extraction, absorption at 318 nm); assay type: in vitro ADME
Protocol: These studies measured the penetration of stock solutions of hydroxypyridine-2-thione zinc (PT) in human fingernails.
PT was dissolved in 100% DMSO at a concentration of 2 mg/mL to form a PT stock solution. PT working solution was made by mixing 300 μL of the PT stock solution with 700 μL of water. The final concentration was 0.6 mg/mL (30% DMSO). The nail pieces (0.1 g) were incubated in 1 mL of PT working solution overnight at room temperature. After incubation, the pieces were washed with water three times in a spin column. The pieces were then incubated in 200 μL of 30% DMSO to extract PT for 4 hours at room temperature (“Extracting Solution”).
A standard curve of PT was established by measuring the absorption at 318 nm in 500 μL samples of 30% DMSO containing 0.25, 0.5, 0.75, 1, and 2 μg PT. Standard solutions and subsequent dilutions were prepared as above. The solutions in their desired concentrations were then incubated at room temperature for 5 min prior to spectrophotometric determination.

[2] = for NaOM in 50 μL sample: 0.1 g nail pieces incubated 24 h at room temperature, extracted in 1 mL water for 24 h; for NaOM conc in sample: Extracting Solution
Protocol: These studies measured the penetration of stock solutions of sodium omadine in human fingernails. Sodium omadine (NaOM) 98% was obtained from Acros Organics, a division of Global Fisher Scientific.
Stock Solution #1. Dissolved 100 mg of NaOM in 100 mL of purified water (1.0 mg/mL).
Stock Solution #2. Diluted 2 mL of Stock Solution #1 to 100 mL of purified water (20 μg/mL).
Standard Solution #1 (2.50 μg/mL). Diluted 12.5 mL of Stock Solution #2 to 100 mL with purified water.
Standard Solution #2 (5.00 μg/mL). Diluted 25 mL of Stock Solution #2 to 100 mL with purified water.
Standard Solution #3 (7.50 μg/mL). Diluted 37.5 mL of Stock Solution #2 to 100 mL with purified water.
Standard Solution #4 (10.0 μg/mL). Diluted 50 mL of Stock Solution #2 to 100 mL with purified water.
Standard Solution #5 (20.0 μg/mL). No dilution was necessary, same as Stock Solution #2.
Nail clips, pooled from six human volunteers were cut into small pieces of approximately 0.5-1 mm×2-3 mm. The nail pieces, 0.1 g, were placed in each of the above solutions at room temperature and incubated for twenty-four hours. After incubation, the pieces were washed quickly three times with purified water to remove any residual solution on the nail surface. The pieces were then incubated in 1 mL of purified water for twenty-four hours at room temperature to extract the NaOM absorbed into the nail bed (“Extracting Solution”).
A standard curve of NaOM was made by measuring the absorption at 318 nm for a 500 μL sample containing 0.25, 0.50, 0.75, 1.0, and 2.0 μg of NaOM. An aliquot (50 μL) of each Standard Solution (#1-#5) was diluted to 500 μL with 1 mM cupric chloride (CuCl2). The standard solutions were freshly prepared and incubated at room temperature for fifteen minutes prior to spectrophotometric determination.
The amount of NaOM in each sample of Extracting Solution was determined at 318 nm. Similarly, a 50 μL aliquot of each Extracting Solution was diluted to 500 μL with 1 mM CuCl2 and incubated at room temperature for 15 minutes. The amount of NaOM in each sample of Extracting Solution was then determined at 318 nm by spectrophotometry. The concentration of the NaOM adsorbed into the nail was determined from the standard curve.

[3] = commercially available topical treatment of onychomycosis; cited from earlier work
[4] = 0.6 mg/mL PT working solution (30% DMSO), 0.1 g nail incubated overnight, extracted in 200 μL of 30% DMSO for 4 h

[O-]n1ccccc1=S.[O-]n1ccccc1=S.[Zn+2] [PT, hydroxypyridine-2-thione zinc]
concentration of PT in Extracting Solution [1, 4]: 23000 ng/mL
concentration of PT in Extracting Solution (per 50 μL aliquot) [1, 4]: 1.15 μg/50 μL
penetration into fingernails (conclusion in words) ([1]; twelve hours or less incubation time): significant penetration

[Na+].[O-][n+]1ccccc1[S-] [NaOM, Sodium omadine]
NaOM in 0.1 g nail ([2]; Wk Sol Conc 0.01 mg/mL): 1.02 µg
NaOM in 50 μL sample ([2]; Wk Sol Conc 0.01 mg/mL): 0.34 µg
NaOM conc in sample ([2]; Wk Sol Conc 0.01 mg/mL): 7 µg/mL
NaOM in 0.1 g nail ([2]; Wk Sol Conc 0.05 mg/mL): 2.10 µg
NaOM in 50 μL sample ([2]; Wk Sol Conc 0.05 mg/mL): 0.70 µg
NaOM conc in sample ([2]; Wk Sol Conc 0.05 mg/mL): 14 µg/mL
NaOM in 0.1 g nail ([2]; Wk Sol Conc 0.1 mg/mL): 3.99 µg
NaOM in 50 μL sample ([2]; Wk Sol Conc 0.1 mg/mL): 1.33 µg
NaOM conc in sample ([2]; Wk Sol Conc 0.1 mg/mL): 27 µg/mL

Cc1cc(C2CCCCC2)n(O)c(=O)c1 [Ciclopirox, ciclopirox]
penetration across the layers of the nail (in words) [3]: poor penetration
